Assay results as given in patent US20060089391A1, “Treatment of cancer in pediatric patients” (priority 2004, published 2006).
Read-outs that look alike come from different tables or passages of the source.

Legend:
[1] = molecular target: biotinylated bovine brain tubulin; details: competition of [3H]colchicine
[2] = Pharmacokinetic profiles of pediatric patients after oral dosing; format: in vivo, human; details: for area under the plasma concentration time curve / time of maximum plasma concentration: immediate release composition
neuroblastoma = assay: Clinical response in pediatric patients with neuroblastoma; format: in vivo, human
From the text: Patients (n=19) with neuroblastoma have experienced time-to-disease progresson with a median progression free survival (FPS) of 20 weeks.

[3] = one 75 mg per mm^2 per day oral dose for 21 days
[4] = one 100 mg per mm^2 per day oral dose for 21 days
[5] = one 130 mg per mm^2 per day oral dose for 21 days
[6] = one 165 mg per mm^2 per day oral dose for 21 days
[7] = one 200 mg per mm^2 per day oral dose for 21 days
[8] = one 250 mg per mm^2 per day oral dose for 21 days

COc1ccc(S(=O)(=O)Nc2cccnc2Nc2ccc(O)cc2)cc1 [ABT-751, N-(2-((4-hydroxyphenyl)amino)pyrid-3-yl)-4-methoxybenzenesulfonamide]
Ki [1]: 2.6 µM | Tmax ([2]; 250 mg/mm^2/d QD oral): 2.0 h | Tmax ([2]; human, in vivo, 200 QD oral, mean±SD, read-out: Tmax): 3 ± 1.7 h | Cmax ([2]; human, plasma, 75 QD oral, mean±SD): 8 ± 1.7 µg/mL | Tmax ([2]; human, plasma, 75 QD oral, mean±SD, read-out: Tmax): 2.7 ± 0.6 h | Cmax ([2]; human, plasma, 100 QD oral, mean±SD): 10.6 ± 3 µg/mL | Tmax ([2]; human, plasma, 100 QD oral, mean±SD, read-out: Tmax): 1.9 ± 1 h | Cmax ([2]; human, plasma, 130 QD oral, mean±SD): 10.8 ± 2.9 µg/mL | Tmax ([2]; human, plasma, 130 QD oral, mean±SD, read-out: Tmax): 2.2 ± 0.8 h | Cmax ([2]; human, plasma, 165 QD oral, mean±SD): 13.5 ± 4.6 µg/mL | Tmax ([2]; human, plasma, 165 QD oral, mean±SD, read-out: Tmax): 3 ± 1.7 h | Cmax ([2]; human, plasma, 200 QD oral, mean±SD): 16.9 ± 8.1 µg/mL | Cmax ([2]; human, plasma, 250 QD oral, mean±SD): 23.3 ± 6.5 µg/mL | area under the plasma concentration time curve [2, 3]: 52 ± 21 µg·h/mL | time of maximum plasma concentration [2, 3]: 2.7 ± 0.6 h | area under the plasma concentration time curve [2, 4]: 60 ± 19 µg·h/mL | time of maximum plasma concentration [2, 4]: 1.9 ± 1 h | area under the plasma concentration time curve [2, 5]: 62 ± 19 µg·h/mL | time of maximum plasma concentration [2, 5]: 2.2 ± 0.8 h | area under the plasma concentration time curve [2, 6]: 90 ± 27 µg·h/mL | time of maximum plasma concentration [2, 6]: 3 ± 1.7 h | area under the plasma concentration time curve [2, 7]: 91 ± 24 µg·h/mL | time of maximum plasma concentration [2, 7]: 3 ± 1.7 h | area under the plasma concentration time curve [2, 8]: 129 ± 23 µg·h/mL | time of maximum plasma concentration [2, 8]: 2 h | clinical outcome of a single patient (neuroblastoma; patient with neuroblastoma, 100 mg/mm^2/d on the daily x7 schedule): disease stabilization after 44 cycles | median progression free survival (FPS) (neuroblastoma; patients (n=19) with neuroblastoma): 20 weeks

CC[C@]1(O)C[C@@H]2CN(CCc3c([nH]c4ccccc34)[C@@](C(=O)OC)(c3cc4c(cc3OC)N(C)[C@H]3[C@@](O)(C(=O)OC)[C@H](OC(C)=O)[C@]5(CC)C=CCN6CC[C@]43[C@@H]65)C2)C1 [vinblastine]
Ki [1]: > 100 µM
